For 9 compounds, Ki and Ratio Ki results are on record in ChEMBL document CHEMBL1144779, “Identification of novel cannabinoid CB1 receptor antagonists by using virtual screening with a pharmacophore model” (J Med Chem, 2008).

A word on the Ki: it is the dissociation constant of the complex between target and ligand, obtained from inhibition or displacement.

Molecules are shown by their SMILES.

Experiment [1] deals with T1, Cannabinoid receptor 2 (Homo sapiens, UniProt P34972). Put plainly: Binding affinity to CB2 receptor.
The target of experiment [2] is T2, Cannabinoid receptor 1 (Homo sapiens, UniProt P21554). Put plainly: biochemical. In kind it is cell-based, HEK293.
Description: Displacement of [3H]CP-55940 from human CB1 receptor expressed in HEK293 cells
A further experiment is filed under the species Homo sapiens. Kind of experiment: Selectivity for human CB1 receptor over human CB2 receptor.
The target of experiment [3] is T1, Cannabinoid receptor 2. Kind of experiment: Displacement of [3H]CP-55940 from human CB2 receptor expressed in CHO cells. The experiment is classed as cell-based.
Experiment [4] concerns the target T2, Cannabinoid receptor 1.
Description: Binding affinity to CB1 receptor

T1 sequence (P34972 whole entry): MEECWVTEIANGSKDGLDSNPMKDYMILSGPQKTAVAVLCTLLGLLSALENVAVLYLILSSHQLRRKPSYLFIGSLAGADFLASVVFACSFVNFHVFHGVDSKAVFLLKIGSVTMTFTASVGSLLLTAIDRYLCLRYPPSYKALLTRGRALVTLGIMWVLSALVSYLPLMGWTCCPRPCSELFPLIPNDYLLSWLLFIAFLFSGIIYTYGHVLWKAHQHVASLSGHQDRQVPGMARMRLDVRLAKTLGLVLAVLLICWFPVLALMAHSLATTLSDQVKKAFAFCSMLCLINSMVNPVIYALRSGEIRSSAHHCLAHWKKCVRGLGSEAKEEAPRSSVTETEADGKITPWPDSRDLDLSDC
T2 sequence (P21554 whole entry): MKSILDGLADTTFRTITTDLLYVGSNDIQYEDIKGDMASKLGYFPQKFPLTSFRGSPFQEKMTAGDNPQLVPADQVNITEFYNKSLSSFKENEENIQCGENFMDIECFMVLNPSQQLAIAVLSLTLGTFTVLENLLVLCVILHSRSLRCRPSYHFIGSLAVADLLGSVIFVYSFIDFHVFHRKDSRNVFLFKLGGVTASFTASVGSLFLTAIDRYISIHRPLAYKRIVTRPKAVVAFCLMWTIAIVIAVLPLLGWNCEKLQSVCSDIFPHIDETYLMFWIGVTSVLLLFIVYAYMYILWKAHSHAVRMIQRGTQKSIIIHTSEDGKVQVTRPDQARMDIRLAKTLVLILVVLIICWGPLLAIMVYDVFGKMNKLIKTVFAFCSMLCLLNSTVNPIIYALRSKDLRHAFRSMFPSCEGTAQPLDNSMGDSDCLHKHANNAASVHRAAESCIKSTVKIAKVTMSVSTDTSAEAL

On Cannabinoid receptor 2 [1], `O=C(NN1CCCCC1)c1nn(-c2ccc(Cl)cc2Cl)c2c1CCCc1cc(Cl)ccc1-2` came in with an inhibition constant (Ki) of 21 nM.
For the compound `COc1ccc(-c2oc3cc(OC)ccc3c2C(=O)c2ccc(C#N)cc2)cc1`, the inhibition constant (Ki) at Cannabinoid receptor 2 [1] is over 10000 nM.
On to `CC(=O)SC(CCc1ccccc1)[C@H]1C(=O)N(c2ccc(F)cc2)[C@@H]1c1ccc(O)cc1` (stereo partly specified), for which the inhibitory constant (Ki) at Cannabinoid receptor 1 [2] worked out at 52.8 nM; at Cannabinoid receptor 2 [3], 282 nM. Further, in the experiment listed under Homo sapiens, the Ratio Ki came to 5.
`O=C(NN1CCCCC1)c1nn(-c2ccc(Cl)cc2Cl)c(-c2ccc(-c3cccnc3)cc2)c1CO`: the inhibition constant (Ki) is 2310 nM at Cannabinoid receptor 2 [1] and 5.8 nM on Cannabinoid receptor 1 [4].
Regarding `O=C1[C@@H](CCC(O)c2ccc(F)cc2)[C@H](c2ccc(O)cc2)N1c1ccc(F)cc1` (stereo partly specified), the Ki is 301 nM at Cannabinoid receptor 1 [2] and over 1820 nM on Cannabinoid receptor 2 [3].
In the case of `CS(=O)(=O)C(=C1CN(C(c2ccc(Cl)cc2)c2ccc(Cl)cc2)C1)c1cc(F)cc(F)c1`, the Ki on Cannabinoid receptor 1 [4] is under 100 nM.
With `COc1ccc([C@@H]2[C@@H](CCCc3cccnc3)C(=O)N2c2ccccc2)cc1`, the Ki at Cannabinoid receptor 1 [2] stood at 244 nM; at Cannabinoid receptor 2 [3] it was 1090 nM.
Consider `COc1ccc(C2C(CCS(=O)(=O)c3ccccc3)C(=O)N2c2ccccc2)cc1` (stereo unspecified), for which the Ki on Cannabinoid receptor 1 [2] came out at 451 nM; on Cannabinoid receptor 2 [3], 1240 nM.
For the compound `COc1ccc([C@@H]2[C@@H](Cc3cc4ccccc4o3)C(=O)N2c2ccccc2)cc1`, the Ki on Cannabinoid receptor 1 [2] stood at 839 nM; at Cannabinoid receptor 2 [3], 194 nM.
